Measurements as given in ChEMBL document CHEMBL1201862, “PubChem BioAssay data set” (2004).
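Test compounds were applied to cells in 96-well plates for 48 hours at 5 doses. GI50 is the concentration that inhibits growth by half.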 Active and inactive are the calls of the source. Rule as the data show it: active = GI50 up to about 1.1 µM and inactive = higher.

Legend:
Assay in all cases: NCI-60 cell line screen, 48 h
SNB-19 = system: SNB-19
SK-MEL-5 = system: SK-MEL-5
A549 = system: A549
OVCAR-5 = system: OVCAR-5
LOX IMVI = system: LOX IMVI
PC-3 = system: PC-3
DU-145 = system: DU-145
K562 = system: K562
UACC-257 = system: UACC-257
RPMI-8226 = system: RPMI-8226
HOP-62 = system: HOP-62
MDA-MB-231 = system: MDA-MB-231
IGROV-1 = system: IGROV-1
HOP-92 = system: HOP-92
BT-549 = system: BT-549
KM12 = system: KM12
786-0 = system: 786-0
EKVX = system: EKVX
MCF7 = system: MCF7
A498 = system: A498
HL-60 = system: HL-60
MOLT-4 = system: MOLT-4
T47D = system: T47D
NCI/ADR-RES = system: NCI/ADR-RES
Malme-3M = system: Malme-3M
OVCAR-4 = system: OVCAR-4
HCC 2998 = system: HCC 2998
SK-MEL-28 = system: SK-MEL-28
NCI-H226 = system: NCI-H226
MDA-MB-435 = system: MDA-MB-435
RXF 393 = system: RXF 393
SW-620 = system: SW-620
MDA-N = system: MDA-N
UO-31 = system: UO-31
HT-29 = system: HT-29
CCRF-CEM = system: CCRF-CEM
SK-OV-3 = system: SK-OV-3
UACC-62 = system: UACC-62
SF-268 = system: SF-268
U-251 = system: U-251
SN12C = system: SN12C
SR = system: SR
SK-MEL-2 = system: SK-MEL-2
HCT-15 = system: HCT-15
NCI-H23 = system: NCI-H23
TK-10 = system: TK-10
NCI-H460 = system: NCI-H460
ACHN = system: ACHN
M14 = system: M14
COLO 205 = system: COLO 205
OVCAR-3 = system: OVCAR-3
HCT-116 = system: HCT-116
SF-539 = system: SF-539
OVCAR-8 = system: OVCAR-8
SNB-75 = system: SNB-75
CAKI-1 = system: CAKI-1
NCI-H522 = system: NCI-H522
SF-295 = system: SF-295

Clc1ccccc1-c1nnc2c(-c3ccccc3)nc3ccccc3n12
GI50 (SNB-19): > 100 µM (inactive)
GI50 (SK-MEL-5): > 100 µM (inactive)
GI50 (A549): > 100 µM (inactive)
GI50 (OVCAR-5): > 100 µM (inactive)
GI50 (LOX IMVI): > 100 µM (inactive)
GI50 (PC-3): > 100 µM (inactive)
GI50 (DU-145): > 100 µM (inactive)
GI50 (K562): > 100 µM (inactive)
GI50 (UACC-257): > 100 µM (inactive)
GI50 (RPMI-8226): > 100 µM (inactive)
GI50 (HOP-62): 69.3 µM (inactive)
GI50 (MDA-MB-231): > 100 µM (inactive)
GI50 (IGROV-1): > 100 µM (inactive)
GI50 (HOP-92): > 100 µM (inactive)
GI50 (BT-549): > 100 µM (inactive)
GI50 (KM12): > 100 µM (inactive)
GI50 (786-0): 40.9 µM (inactive)
GI50 (EKVX): > 100 µM (inactive)
GI50 (MCF7): 92 µM (inactive)
GI50 (A498): > 100 µM (inactive)
GI50 (HL-60): 54.5 µM (inactive)
GI50 (MOLT-4): 42.6 µM (inactive)
GI50 (T47D): 5.93 µM (inactive)
GI50 (NCI/ADR-RES): > 100 µM (inactive)
GI50 (Malme-3M): 61.7 µM (inactive)
GI50 (OVCAR-4): > 100 µM (inactive)
GI50 (HCC 2998): > 100 µM (inactive)
GI50 (SK-MEL-28): > 100 µM (inactive)
GI50 (NCI-H226): > 100 µM (inactive)
GI50 (MDA-MB-435): 52.7 µM (inactive)
GI50 (RXF 393): 13 µM (inactive)
GI50 (SW-620): > 100 µM (inactive)
GI50 (MDA-N): 96.6 µM (inactive)
GI50 (UO-31): 2.07 µM (inactive)
GI50 (HT-29): 47.3 µM (inactive)
GI50 (CCRF-CEM): 26 µM (inactive)
GI50 (SK-OV-3): > 100 µM (inactive)
GI50 (UACC-62): > 100 µM (inactive)
GI50 (SF-268): > 100 µM (inactive)
GI50 (U-251): > 100 µM (inactive)
GI50 (SN12C): > 100 µM (inactive)
GI50 (SR): 45.2 µM (inactive)
GI50 (SK-MEL-2): > 100 µM (inactive)
GI50 (HCT-15): > 100 µM
GI50 (NCI-H23): > 100 µM (inactive)
GI50 (TK-10): > 100 µM (inactive)
GI50 (NCI-H460): > 100 µM (inactive)
GI50 (ACHN): > 100 µM (inactive)
GI50 (M14): > 100 µM (inactive)
GI50 (COLO 205): > 100 µM (inactive)
GI50 (OVCAR-3): > 100 µM (inactive)
GI50 (HCT-116): > 100 µM (inactive)
GI50 (SF-539): > 100 µM (inactive)

Cn1cnnc1SC(F)(F)c1nc2ccccc2o1
GI50 (SK-MEL-5): > 100 µM (inactive)
GI50 (A549): > 100 µM (inactive)
GI50 (OVCAR-5): > 100 µM (inactive)
GI50 (PC-3): > 100 µM (inactive)
GI50 (DU-145): > 100 µM (inactive)
GI50 (K562): > 100 µM (inactive)
GI50 (UACC-257): > 100 µM (inactive)
GI50 (RPMI-8226): > 100 µM (inactive)
GI50 (HOP-62): > 100 µM (inactive)
GI50 (MDA-MB-231): > 100 µM (inactive)
GI50 (IGROV-1): > 100 µM (inactive)
GI50 (HOP-92): > 100 µM (inactive)
GI50 (BT-549): > 100 µM (inactive)
GI50 (KM12): > 100 µM (inactive)
GI50 (786-0): > 100 µM (inactive)
GI50 (OVCAR-8): > 100 µM (inactive)
GI50 (SNB-75): > 100 µM (inactive)
GI50 (MCF7): > 100 µM (inactive)
GI50 (CAKI-1): > 100 µM (inactive)
GI50 (A498): > 100 µM (inactive)
GI50 (MOLT-4): > 100 µM (inactive)
GI50 (T47D): > 100 µM (inactive)
GI50 (NCI/ADR-RES): > 100 µM (inactive)
GI50 (Malme-3M): > 100 µM (inactive)
GI50 (NCI-H522): > 100 µM (inactive)
GI50 (OVCAR-4): > 100 µM (inactive)
GI50 (HCC 2998): > 100 µM (inactive)
GI50 (SK-MEL-28): > 100 µM (inactive)
GI50 (NCI-H226): > 100 µM (inactive)
GI50 (MDA-MB-435): > 100 µM (inactive)
GI50 (SF-295): > 100 µM (inactive)
GI50 (RXF 393): > 100 µM (inactive)
GI50 (SW-620): > 100 µM (inactive)
GI50 (MDA-N): > 100 µM (inactive)
GI50 (UO-31): > 100 µM (inactive)
GI50 (HT-29): > 100 µM (inactive)
GI50 (CCRF-CEM): > 100 µM (inactive)
GI50 (SK-OV-3): > 100 µM (inactive)
GI50 (UACC-62): > 100 µM (inactive)
GI50 (SF-268): > 100 µM (inactive)
GI50 (U-251): > 100 µM (inactive)
GI50 (SN12C): > 100 µM (inactive)
GI50 (SR): > 100 µM (inactive)
GI50 (SK-MEL-2): > 100 µM (inactive)
GI50 (HCT-15): > 100 µM
GI50 (NCI-H23): > 100 µM (inactive)
GI50 (TK-10): > 100 µM (inactive)
GI50 (NCI-H460): > 100 µM (inactive)
GI50 (ACHN): > 100 µM (inactive)
GI50 (M14): > 100 µM (inactive)
GI50 (COLO 205): > 100 µM (inactive)
GI50 (OVCAR-3): > 100 µM (inactive)
GI50 (HCT-116): > 100 µM (inactive)
GI50 (SF-539): > 100 µM (inactive)
